Read-outs that look alike come from different tables or passages of the source.
Tests used:
[1] = target: T1, IGF 3P (Homo sapiens, UniProt P08069); experiment: IGF1R kinase assay (LCCA), IGF 3P; assay type: biochemical
T1 construct: human IGF1R kinase domain residues M954-C1367; made in house; host or cells: baculovirus expression (insect cells)
Procedure, shortened: (§1)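 Read-out is percent ATP remaining, detected by luciferase-luciferin luminescence after a 2 h ambient reaction. Reaction contained 4 nM IGF1R kinase domain (residues M954-C1367, baculovirus-made), 3 μM ATP (near KM), 4 μM poly EY, pH 7.5 with Mg2+/Mn2+. Ten inhibitor concentrations; IC50 by Hill-type curve fit.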

[2] = target: T2, (Homo sapiens, UniProt P08069); experiment: IGF1R kinase assay (LCCA), IGF 0P; assay type: biochemical
T2 construct: human IGF1R kinase domain residues M954-C1367; made in house; host or cells: baculovirus expression (insect cells)
Procedure, shortened: as §1

T2 sequence (P08069 954-1367): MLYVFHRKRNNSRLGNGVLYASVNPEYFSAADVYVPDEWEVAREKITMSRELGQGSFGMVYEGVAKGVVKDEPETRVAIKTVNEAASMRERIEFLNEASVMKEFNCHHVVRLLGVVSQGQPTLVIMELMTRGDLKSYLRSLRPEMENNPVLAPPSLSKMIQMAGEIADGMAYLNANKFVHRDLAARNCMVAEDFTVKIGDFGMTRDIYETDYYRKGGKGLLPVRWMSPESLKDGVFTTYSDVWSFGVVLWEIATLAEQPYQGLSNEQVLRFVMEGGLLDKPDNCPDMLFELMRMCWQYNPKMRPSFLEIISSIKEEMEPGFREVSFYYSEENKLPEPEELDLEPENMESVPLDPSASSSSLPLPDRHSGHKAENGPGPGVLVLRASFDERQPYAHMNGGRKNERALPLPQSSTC
T1 sequence (P08069 954-1367): as above

SMILES | IC50 [1] [nM] | IC50 [2] [nM] | IC50 ([1]; IGF 3P) [nM] | IC50 ([2]; IGF 0P) [nM]
CC(C)c1cc(Nc2cc(N3CCN(C)CC3)nc(NCc3cc(-c4ccc(F)cc4)no3)n2)[nH]n1 [Example 608, N^2-{[3-(4-fluorophenyl)isoxazol-5-yl]methyl}-N^4-[3-(1-methylethyl)-1H-pyrazol-5-yl]-6-(4-methylpiperazin-1-yl)pyrimidine-2,4-diamine] | < 50 | 50 to 500 |  | 
CC(C)c1cc(Nc2cc(OCCN3CCOCC3)nc(NCc3cc(-c4ccc(F)cc4)no3)n2)[nH]n1 [Example 609] | < 50 | 50 to 500 |  | 
Cc1cc(Nc2cc(C3CC3)[nH]n2)nc(NCc2cc(-c3cccnc3)no2)n1 [Example 610, N^4-(5-cyclopropyl-1H-pyrazol-3-yl)-6-methyl-N^2-[(3-pyridin-3-ylisoxazol-5-yl)methyl]pyrimidine-2,4-diamine] | < 50 | 50 to 500 |  | 
CN1CCN(c2cc(Nc3cc(C4CC4)[nH]n3)nc(NCc3cc(-c4ccccn4)no3)n2)CC1 [Example 611, N^4-(5-cyclopropyl-1H-pyrazol-3-yl)-6-(4-methylpiperazin-1-yl)-N^2-[(3-pyridin-2-ylisoxazol-5-yl)methyl]pyrimidine-2,4-diamine] | < 50 | 50 to 500 |  | 
c1ccc(-c2cc(CNc3nc(Nc4cc(C5CC5)[nH]n4)cc(N4CCOCC4)n3)on2)nc1 [Example 612, N^4-(5-cyclopropyl-1H-pyrazol-3-yl)-6-morpholin-4-yl-N^2-[(3-pyridin-2-ylisoxazol-5-yl)methyl]pyrimidine-2,4-diamine] | < 50 | 50 to 500 |  | 
CC(=O)N1CCN(c2cc(Nc3cc(C4CC4)[nH]n3)nc(NCc3cc(C(C)C)no3)n2)CC1 [Example 614, 6-(4-acetylpiperazin-1-yl)-N^4-(5-cyclopropyl-1H-pyrazol-3-yl)-N^2-{[3-(1-methylethyl)isoxazol-5-yl]methyl}pyrimidine-2,4-diamine] | < 50 | 50 to 500 |  | 
CC(C)c1cc(CNc2nc(Nc3cc(C4CC4)[nH]n3)cc(N3CCN(S(C)(=O)=O)CC3)n2)on1 [Example 615, N^4-(5-cyclopropyl-1H-pyrazol-3-yl)-N^2-{[3-(1-methylethyl)isoxazol-5-yl]methyl}-6-[4-(methylsulfonyl)piperazin-1-yl]pyrimidine-2,4-diamine] | < 50 | 50 to 500 |  | 
Cc1cc(Nc2cc(N3CCOCC3)nc(NCc3cc(-c4ccccc4)no3)n2)[nH]n1 [Example 617, N^4-(3-methyl-1H-pyrazol-5-yl)-6-morpholin-4-yl-N^2-[(3-phenylisoxazol-5-yl)methyl]pyrimidine-2,4-diamine] | < 50 | 50 to 500 |  | 
Cc1cc(Nc2cc(N3CCN(C)CC3)nc(NCc3cc(-c4ccccc4)no3)n2)[nH]n1 [Example 618, 6-(4-methylpiperazin-1-yl)-N^4-(3-methyl-1H-pyrazol-5-yl)-N^2-[(3-phenylisoxazol-5-yl)methyl]pyrimidine-2,4-diamine] | < 50 | 50 to 500 |  | 
Cc1cc(Nc2cc(OCCN3CCOCC3)nc(NCc3cc(-c4ccccc4)no3)n2)[nH]n1 [Example 619, N^4-(3-methyl-1H-pyrazol-5-yl)-6-[(2-morpholin-4-ylethyl)oxy]-N^2-[(3-phenylisoxazol-5-yl)methy]pyrimidine-2,4-diamine] | 50 to 500 | 50 to 500 |  | 
Cc1cc(Nc2cc(C3CC3)[nH]n2)nc(NCc2cc(-c3ccncc3)no2)n1 [Example 620, N^4-(5-cyclopropyl-1H-pyrazol-3-yl)-6-methyl-N^2-[(3-pyridin-4-ylisoxazol-5-yl)methyl]pyrimidine-2,4-diamine] | 50 to 500 | 50 to 500 |  | 
Cc1cc(Nc2cc(C3CC3)[nH]n2)nc(NCc2cc(-c3ccc(F)c(F)c3)no2)n1 [Example 621, N^4-(5-cyclopropyl-1H-pyrazol-3-yl)-N^2-{[3-(3,4-difluorophenyl)isoxazol-5-yl]methyl}-6-methylpyrimidine-2,4-diamine] | < 50 | 50 to 500 |  | 
Cc1cc(Nc2cc(C3CC3)[nH]n2)nc(NCc2cc(-c3ccc(F)cc3F)no2)n1 [Example 622, N^4-(5-cyclopropyl-1H-pyrazol-3-yl)-N^2-{[3-(2,4-difluorophenyl)isoxazol-5-yl]methyl}-6-methylpyrimidine-2,4-diamine] | < 50 | 50 to 500 |  | 
Cc1cc(Nc2cc(C3CC3)[nH]n2)nc(NCc2cc(-c3cnccn3)no2)n1 [Example 623, N^4-(5-cyclopropyl-1H-pyrazol-3-yl)-6-methyl-N^2-[(3-pyrazin-2-ylisoxazol-5-yl)methyl]pyrimidine-2,4-diamine] | < 50 | 50 to 500 |  | 
Clc1c(Nc2cc(C3CC3)n[nH]2)nc(NCc2cc(-c3ccccc3)no2)nc1N1CCOCC1 [Example 624, 5-chloro-N^4-(3-cyclopropyl-1H-pyrazol-5-yl)-6-morpholin-4-yl-N^2-[(3-phenylisoxazol-5-yl)methyl]pyrimidine-2,4-diamine] | 50 to 500 | 50 to 500 |  | 
CN1CCN(c2nc(NCc3cc(-c4ccccc4)no3)nc(Nc3cc(C4CC4)n[nH]3)c2Cl)CC1 [Example 625, 5-chloro-N^4-(3-cyclopropyl-1H-pyrazol-5-yl)-6-(4-methylpiperazin-1-yl)-N^2-[(3-phenylisoxazol-5-yl)methyl]pyrimidine-2,4-diamine] | 50 to 500 | 50 to 500 |  | 
Cc1cc(Nc2cc(N3CCN(C)CC3)nc(NCc3cc(C)no3)n2)[nH]n1 [Example 626, N^2-[(3-methylisoxazol-5-yl)methyl]-6-(4-methylpiperazin-1-yl)-N^4-(3-methyl-1H-pyrazol-5-yl)pyrimidine-2,4-diamine] | 50 to 500 | 500 to 5000 |  | 
Cc1cc(Nc2cc(N3CCOCC3)nc(NCc3cc(C)no3)n2)[nH]n1 [Example 627, N^2-[(3-methylisoxazol-5-yl)methyl]-N^4-(3-methyl-1H-pyrazol-5-yl)-6-morpholin-4-ylpyrimidine-2,4-diamine] | 50 to 500 | 500 to 5000 |  | 
CN1CCN(c2cc(Nc3cc(C4CC4)[nH]n3)nc(NCc3cc(-c4ccncn4)no3)n2)CC1 [Example 628, N^4-(5-cyclopropyl-1H-pyrazol-3-yl)-6-(4-methylpiperazin-1-yl)-N^2-[(3-pyrimidin-4-ylisoxazol-5-yl)methyl]pyrimidine-2,4-diamine] | < 50 | 50 to 500 |  | 
CN1CCN(c2cc(Nc3cc(C4CC4)[nH]n3)nc(NCc3cc(-c4ccoc4)no3)n2)CC1 [Example 629, N^4-(5-cyclopropyl-1H-pyrazol-3-yl)-N^2-[(3-furan-3-ylisoxazol-5-yl)methyl]-6-(4-methylpiperazin-1-yl)pyrimidine-2,4-diamine] | < 50 | 50 to 500 |  | 
Cc1cc(CNc2nc(Nc3cc(C4CC4)[nH]n3)cc(NC3CC4CCC(C3)N4C)n2)on1 (stereo not shown) [Example 630, N^4-(5-cyclopropyl-1H-pyrazol-3-yl)-N^6-(8-methyl-8-azabicyclo[3.2.1]oct-3-yl)-N^2-[(3-methylisoxazol-5-yl)methyl]pyrimidine-2,4,6-triamine] | < 50 | 50 to 500 |  | 
Cc1cc(CNc2nc(Nc3cc(C4CC4)[nH]n3)cc(N3CC4CC3CN4C)n2)on1 (stereo not shown) [Example 631, N^4-(5-cyclopropyl-1H-pyrazol-3-yl)-6-(5-methyl-2,5-diazabicyclo[2.2.1]hept-2-yl)-N^2-[(3-methylisoxazol-5-yl)methyl]pyrimidine-2,4-diamine] | < 50 | 50 to 500 |  | 
Cc1cc(CNc2nc(Nc3cc(C4CC4)[nH]n3)cc(NC3CC4CCC3C4)n2)on1 (stereo not shown) [Example 634, N^4-bicyclo[2.2.1]hept-2-yl-N^6-(5-cyclopropyl-1H-pyrazol-3-yl)-N^2-[(3-methylisoxazol-5-yl)methyl]pyrimidine-2,4,6-triamine] | < 50 | 50 to 500 |  | 
Cc1cc(CNc2nc(Nc3cc(C4CC4)[nH]n3)cc(N3C[C@H]4C[C@@H]3CN4Cc3ccccc3)n2)on1 [Example 635, N^4-(5-cyclopropyl-1H-pyrazol-3-yl)-N^2-[(3-methylisoxazol-5-yl)methyl]-6-[(1R,4R)-5-(phenylmethyl)-2,5-diazabicyclo[2.2.1]hept-2-yl]pyrimidine-2,4-diamine] | < 50 | 50 to 500 |  | 
CC(C)c1cc(CNc2nc(Nc3cc(C4CC4)[nH]n3)cc(N3C[C@H]4C[C@@H]3CN4Cc3ccccc3)n2)on1 [Example 636, N^4-(5-cyclopropyl-1H-pyrazol-3-yl)-N^2-{[3-(1-methylethyl)isoxazol-5-yl]methyl}-6-[(1R,4R)-5-(phenylmethyl)-2,5-diazabicyclo[2.2.1]hept-2-yl]pyrimidine-2,4-diamine] |  |  | < 50 | 50 to 500
c1cc(-c2cc(CNc3nc(Nc4cc(C5CC5)[nH]n4)cc(N4CCOCC4)n3)on2)ncn1 [Example 637, N^4-(5-cyclopropyl-1H-pyrazol-3-yl)-6-morpholin-4-yl-N^2-[(3-pyrimidin-4-ylisoxazol-5-yl)methyl]pyrimidine-2,4-diamine] | < 50 | 50 to 500 |  | 
CN(C)CCOc1cc(Nc2cc(C3CC3)[nH]n2)nc(NCc2cc(-c3ccncn3)no2)n1 [Example 638, N^4-(5-cyclopropyl-1H-pyrazol-3-yl)-6-{[2-(dimethylamino)ethyl]oxy}-N^2-[(3-pyrimidin-4-ylisoxazol-5-yl)methyl]pyrimidine-2,4-diamine] | < 50 | 50 to 500 |  | 
Cc1cc(Nc2cc(C3CC3)[nH]n2)nc(NCc2cc(-c3ccc(F)cn3)no2)n1 [Example 639, N^4-(5-cyclopropyl-1H-pyrazol-3-yl)-N^2-{[3-(5-fluoropyridin-2-yl)isoxazol-5-yl]methyl}-6-methylpyrimidine-2,4-diamine] | 500 to 5000 | 500 to 5000 |  | 
CN1CCN(c2cc(Nc3cc(C4CC4)[nH]n3)nc(NCc3cc(-c4cccs4)no3)n2)CC1 [Example 640, N^4-(5-cyclopropyl-1H-pyrazol-3-yl)-6-(4-methylpiperazin-1-yl)-N^2-{[3-(2-thienyl)isoxazol-5-yl]methyl}pyrimidine-2,4-diamine] | < 50 | 50 to 500 |  | 

Source: patent US8211929B2, “Pyrimidine derivatives as kinase modulators and method of use” (Exelixis, Inc., priority 2004, dated 2012)
